Experimental data taken from US9624238B2, “4H-thieno[3,2-C]chromene-based inhibitors of Notum Pectinacetylesterase and methods of their use” (Lexicon Pharmaceuticals, Inc., priority 2011, dated 2017).

Tests used:
[1] = target: T1, human notum pectinacetyltransferase (Homo sapiens, UniProt Q6P988); assay: Binding assay (OPTS esterase substrate, fluorimetric); type: biochemical
T1 construct: made in house; unpurified conditioned medium used
T1 sequence (Q6P988 20-496): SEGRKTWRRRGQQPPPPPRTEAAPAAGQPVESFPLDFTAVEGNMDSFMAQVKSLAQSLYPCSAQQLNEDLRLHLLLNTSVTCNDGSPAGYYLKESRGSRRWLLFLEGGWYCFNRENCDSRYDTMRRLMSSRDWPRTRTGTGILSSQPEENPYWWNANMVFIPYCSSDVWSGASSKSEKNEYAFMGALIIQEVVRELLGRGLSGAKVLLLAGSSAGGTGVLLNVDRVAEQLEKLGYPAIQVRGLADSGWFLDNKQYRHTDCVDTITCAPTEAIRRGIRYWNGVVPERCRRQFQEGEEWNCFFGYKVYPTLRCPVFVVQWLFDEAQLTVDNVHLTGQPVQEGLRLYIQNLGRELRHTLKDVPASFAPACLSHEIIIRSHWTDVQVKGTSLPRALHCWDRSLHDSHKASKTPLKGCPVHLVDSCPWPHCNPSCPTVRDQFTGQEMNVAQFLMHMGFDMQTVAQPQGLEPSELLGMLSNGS
Procedure: Plasmid containing human notum pectinacetyltransferase in pcDNA3.1(+) vector was transfected into HEK (293 cells and clones were selecting by growing in presence of 400 ug/mL of G418. Condition media from these cells was used for the assay.

[2] = target: T1, human notum pectinacetyltransferase; assay: Reporter assay (CellSensor LEF/TCF-bla FreeStyle 293F cells, Wnt3a and notum conditioned media); type: cell-based
Procedure: Plasmid containing human notum pectinacetyltransferase in pcDNA3.1(+) vector was transfected into HEK (293 cells and clones were selecting by growing in presence of 400 ug/mL of G418. The clone containing highest expression of human notum pectinacetyltransferase in the conditioned media was maintained for all future activity assays. L cells overexpressing and secreting Wnt3a into the conditioned media were purchased from ATCC.
The assay protocol was as follows. […] The cell growth medium consisted of DMEM with 10% Dialyzed FBS, 5 μg/ml Blasticidin (Invitrogen, R210-01), 0.1 mM NEAA, 25 mM HEPES and 1×GPS. Cells were then trypsinized by first rinsing with PBS, followed by addition of 5 mL of trypsin and incubation of plates at room temperature for two minutes. A total of 10 mL of assay media (Opti-MEM, plus 0.5% dialyzed FBS, 0.1 mM NEAA, 1 mM sodium pyruvate, 10 mM HEPES, 1×GPS) was then added per 15 cm plate. Cells were counted and suspended at 0.75 million cells per mL. […] After incubation of cells at 37° C. for 3 hours, 10 μL of 30 mM LiCl in assay medium was added per well, followed by incubation at 37° C. for another 3 hours. […] Ten μL of the Wnt3a/notum pentinacetyltransferase mixture was then transferred from Greiner plates to each well of the 384-well plates containing the CellSensor cells.

[3] = given as numeric bound above the legend's highest class
[4] = given as numeric bound above the legend's classes
[5] = given as a numeric bound above the legend's range

Row | Compound | IC50 ([1]; class symbols) [nM] | EC50 ([2]; class symbols) [nM] | also measured
1 | O=C(O)C1CCCN1C(=O)c1cc2c(s1)-c1ccccc1CC2 (stereo not drawn) |  |  | IC50 [1, 3]: > 2000 nM
2 | O=C(O)C1CCCN1C(=O)c1cc2c(s1)-c1cc(F)cc(F)c1SC2 (stereo not drawn) | < 2000 |  | 
3 | O=C(O)C1C(O)CCN1C(=O)c1cc2c(s1)-c1c(F)ccc(F)c1SC2 (stereo not drawn) |  |  | IC50 [1, 3]: > 2000 nM
4 | O=C(O)C1CCCN1C(=O)c1cc2c(s1)-c1c(F)ccc(F)c1SC2 (stereo not drawn) | < 1000 |  | 
5 | CC1(C)Oc2ccccc2-c2sc(C(=O)O)cc21 |  |  | IC50 [1, 3]: > 2000 nM
6 | O=C(O)c1cc2c(s1)-c1ccoc1CC2 |  |  | EC50 [2, 4]: > 1000 nM
7 | O=C(O)c1cc2c(s1)-c1scnc1CC2 |  |  | EC50 [2, 4]: > 1000 nM
8 | CC1(C)Cc2cc(C(=O)O)sc2-c2ccccc21 | < 1000 |  | 
9 | COc1ccc2c(c1Cl)CCc1cc(C(N)=O)sc1-2 | < 50 | < 50 | 
10 | COCCNC(=O)c1cc2c(s1)-c1ccc(OC)c(Cl)c1CC2 | < 1000 | < 50 | 
11 | COc1ccc2c(c1Cl)CCc1cc(C(=O)NCCN3CCOCC3)sc1-2 | < 1000 | < 50 | 
12 | Cc1ccc(Cl)c2c1-c1sc(C(=O)O)cc1CO2 | < 1000 | < 50 | 
13 | COc1ccc2c(c1Cl)CCc1cc(C(=O)NCCC#N)sc1-2 | < 1000 | < 50 | 
14 | COc1ccc2c(c1Cl)CCc1cc(C(=O)NCCO)sc1-2 | < 1000 | < 50 | 
15 | N#Cc1cccc2c1OCc1cc(C(=O)O)sc1-2 | < 100 | < 50 | 
16 | COc1ccc2c(c1C#N)CCc1cc(C(N)=O)sc1-2 | < 1000 | < 50 | 
17 | COc1ccc2c(c1F)CCc1cc(C(N)=O)sc1-2 | < 100 | < 50 | 
18 | O=C(NCCO)c1cc2c(s1)-c1cccc(F)c1CC2 | < 1000 | < 50 | 
19 | COCCNC(=O)c1cc2c(s1)-c1cccc(F)c1CC2 | < 100 | < 50 | 
20 | O=C(NCc1ncco1)c1cc2c(s1)-c1cccc(F)c1CC2 | < 100 | < 50 | 
21 | NC(=O)c1cc2c(s1)-c1ccc(F)c(F)c1OC2 | < 50 | < 50 | 
22 | O=C(O)c1cc2c(s1)-c1ccc(F)c(F)c1OC2 | < 1000 | < 50 | 
23 | Cc1ccc2c(c1C)CCc1cc(C(=O)O)sc1-2 | < 1000 |  | 
24 | Cc1ccc2c(c1C)CCc1cc(C(N)=O)sc1-2 | < 1000 |  | 
25 | CC1(C)Oc2c(F)cc(F)cc2-c2sc(C(=O)O)cc21 | < 1000 |  | 
26 | NC(=O)c1cc2c(s1)-c1cc(F)cc(F)c1CC2 | < 50 | < 50 | 
27 | O=C(O)c1cc2c(s1)-c1cc(F)cc(F)c1CC2 | < 1000 | < 50 | 

Row | Compound | IC50 ([1]; class symbols) [nM] | EC50 ([2]; class symbols) [nM] | also measured
28 | NC(=O)c1cc2c(s1)-c1c(F)ccc(F)c1OC2 | < 50 |  | 
29 | CC1(C)Cc2cc(C(N)=O)sc2-c2c(F)ccc(F)c21 | < 50 |  | 
30 | CN(C)c1ccc2c(c1)CCc1cc(C(N)=O)sc1-2 | < 2000 |  | 
31 | O=C(O)c1cc2c(s1)-c1ccc(Cl)cc1CC2 | < 1000 |  | 
32 | NC(=O)c1cc2c(s1)-c1ccc(F)cc1CC2 | < 50 | < 50 | 
33 | O=C(O)c1cc2c(s1)-c1ccc(F)cc1CC2 | < 1000 | < 50 | 
34 | Cc1ccc2c(c1)CCc1cc(C(=O)O)sc1-2 | < 1000 |  | 
35 | NC(=O)c1cc2c(s1)-c1cc(F)c(F)cc1CC2 | < 50 | < 50 | 
36 | O=C(O)c1cc2c(s1)-c1cc(F)c(F)cc1CC2 | < 50 | < 50 | 
37 | Cc1cc2c(cc1C)-c1sc(C(=O)O)cc1CS2 |  |  | IC50 [1, 3]: > 2000 nM
38 | Cc1cc2c(cc1C)-c1sc(C(=O)O)cc1CC2 | < 2000 |  | 
39 | Cc1cc2c(cc1C)-c1sc(C(N)=O)cc1CC2 | < 2000 |  | 
40 | O=C(O)c1cc2c(s1)-c1c(F)cc(F)cc1OC2 | < 2000 |  | 
41 | O=C(O)c1cc2c(s1)-c1c(F)cc(F)cc1SC2 | < 1000 |  | 
42 | CC1(C)Cc2cc(C(=O)O)sc2-c2cc(Br)ccc21 |  |  | IC50 [1, 5]: > 2000 nM
43 | NC(=O)c1cc(F)c2c(c1)-c1sc(C(=O)O)cc1CO2 |  |  | IC50 [1, 3]: > 2000 nM
44 | NC(=O)c1cc2c(s1)-c1cc(Cl)ccc1OC2 | < 1000 |  | 
45 | O=C(O)c1cc2c(s1)-c1cc(Cl)ccc1SC2 | < 2000 |  | 
46 | N#Cc1ccc2c(c1)-c1sc(C(=O)O)cc1CO2 |  |  | IC50 [1, 3]: > 2000 nM
47 | N#Cc1cc(F)c2c(c1)-c1sc(C(=O)O)cc1CO2 | < 1000 |  | 
48 | CC1Oc2ccc(F)cc2-c2sc(C(=O)O)cc21 (stereo not drawn) | < 1000 |  | 
49 | COc1ccc2c(c1)-c1sc(C(=O)O)cc1CO2 |  |  | IC50 [1, 3]: > 2000 nM
50 | Cc1ccc2c(c1)-c1sc(C(=O)O)cc1CS2 |  |  | IC50 [1, 5]: > 2000 nM
51 | Cc1ccc2c(c1C)-c1sc(C(=O)O)cc1CC2 | < 2000 |  | 
52 | Cc1ccc2c(c1C)-c1sc(C(N)=O)cc1CC2 | < 1000 |  | 
53 | O=C(O)c1cc2c(s1)-c1c(cccc1C(F)(F)F)OC2 | < 1000 | < 50 | 
54 | NC(=O)c1cc2c(s1)-c1c(cccc1C(F)(F)F)OC2 | < 50 | < 50 | 

Row | Compound | IC50 ([1]; class symbols) [nM] | EC50 ([2]; class symbols) [nM] | also measured
55 | O=C(O)c1cc2c(s1)-c1c(Br)cccc1CC2 |  |  | IC50 [1, 3]: > 2000 nM
56 | N#Cc1cccc2c1-c1sc(C(=O)O)cc1CC2 |  |  | IC50 [1, 3]: > 2000 nM
57 | Cc1cccc2c1-c1sc(C(=O)O)cc1CO2 |  |  | IC50 [1, 5]: > 2000 nM
58 | COc1ccc2c(c1Cl)CCc1cc(C(=O)NCCc3nnn[nH]3)sc1-2 | < 1000 | < 50 | 
59 | O=C(NCCc1nnn[nH]1)c1cc2c(s1)-c1cccc(F)c1CC2 | < 1000 | < 50 | 
60 | CN(C)CCNC(=O)c1cc2c(s1)-c1ccccc1CC2 |  |  | IC50 [1, 3]: > 2000 nM
61 | N#CCCNC(=O)c1cc2c(s1)-c1cccc(F)c1CC2 | < 100 | < 100 | 
62 | O=C(NCCN1CCOCC1)c1cc2c(s1)-c1ccccc1CC2 |  |  | IC50 [1, 3]: > 2000 nM
63 | CS(=O)(=O)NC(=O)c1cc2c(s1)-c1ccccc1CC2 |  |  | IC50 [1, 3]: > 2000 nM
64 | CCCCNC(=O)c1cc2c(s1)-c1ccccc1CC2 | < 1000 |  | 
65 | CCNC(=O)c1cc2c(s1)-c1ccccc1CC2 | < 1000 |  | 
66 | O=C(NS(=O)(=O)O)c1cc2c(s1)-c1ccccc1CC2 | < 2000 |  | 
67 | COCC1CCCN1C(=O)c1cc2c(s1)-c1cc(F)cc(F)c1SC2 (stereo not drawn) |  |  | IC50 [1, 3]: > 2000 nM
68 | CCOC(=O)c1cc2c(s1)-c1cc(F)cc(Cl)c1SC2 |  |  | IC50 [1, 4]: > 2000 nM
69 | CCOC(=O)c1cc2c(s1)-c1cccc(C#N)c1CC2 |  |  | IC50 [1, 3]: > 2000 nM
70 | CCOC(=O)c1cc2c(s1)-c1ccc(C)c(F)c1CC2 | < 1000 |  | 
71 | CCOC(=O)c1cc2c(s1)-c1ccc(Cl)cc1CC2 |  |  | IC50 [1, 3]: > 2000 nM
72 | CCOC(=O)c1cc2c(s1)-c1ccc(C#N)cc1CC2 |  |  | IC50 [1, 3]: > 2000 nM
73 | CCOC(=O)c1cc2c(s1)-c1ccc(C)cc1CC2 |  |  | IC50 [1, 3]: > 2000 nM
74 | CCOC(=O)c1cc2c(s1)-c1cc(F)ccc1OC2C (stereo not drawn) |  |  | IC50 [1, 3]: > 2000 nM
75 | CCOC(=O)c1cc2c(s1)-c1cc(F)ccc1OC2 |  |  | IC50 [1, 5]: > 2000 nM
76 | COC(=O)c1cc2c(s1)-c1ccccc1OC2 | < 1000 |  | 
77 | COC(=O)c1cc2c(s1)-c1ccccc1CC2 | < 1000 | < 50 | 
78 | CC(C)(C)OC(=O)CC1CCCN1C(=O)c1cc2c(s1)-c1cc(F)cc(F)c1SC2 (stereo not drawn) |  |  | IC50 [1, 3]: > 2000 nM
79 | O=C(O)c1cc2c(s1)-c1sccc1CC2 [4,5-dihydrobenzo[1,2-b:6,5-b′]dithiophene-2-carboxylic acid] |  | < 1000 | 
